Results as given in patent US4663310A, “Renin inhibitors containing 2-substituted statine” (Merck & Co., Inc., priority 1984, dated 1987).
Starred links: 1 amine or outer side, 2 acyl side, 3 side chain; linkers in the order of their positions; H or OH if unused. Non-standard residues stand in square brackets, D forms with d. Residues, ends and D or L forms follow the SMILES beside them. *: point of attachment. X1 = CC(C)CC(C(=O)[*:2])[C@H](O)[C@H](CC(C)C)N[*:1]; Isobutyryl = CC(C)C(=O)*

Assays:
human kidney renin = target: T1, human kidney renin (Homo sapiens, UniProt P00797); test: Inhibition of purified human kidney renin; assay type: biochemical; conditions: dissociation constant of the inhibited enzyme inhibitor complex
T1 construct: human kidney renin purified as described in Bangham; from tissue; host or cells: human kidney
T1 sequence (P00797 67-406): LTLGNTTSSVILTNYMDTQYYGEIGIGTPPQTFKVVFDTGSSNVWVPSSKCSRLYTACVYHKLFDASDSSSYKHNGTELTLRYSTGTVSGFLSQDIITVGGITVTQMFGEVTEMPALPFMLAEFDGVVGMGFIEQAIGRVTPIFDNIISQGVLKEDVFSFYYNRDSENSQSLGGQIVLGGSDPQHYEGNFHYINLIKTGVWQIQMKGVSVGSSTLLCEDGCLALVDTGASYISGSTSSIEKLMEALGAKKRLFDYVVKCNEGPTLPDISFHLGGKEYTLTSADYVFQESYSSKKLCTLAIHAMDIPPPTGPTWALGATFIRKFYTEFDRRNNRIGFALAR
Experimental: (§1) Assays were carried out in order to determine the inhibitory potency of the peptides of the present invention. One assay measured the inhibition of hog kidney renin, and was in accordance with the procedure described in Rich et al., J. Med. Chem. 23: 27, 1980, except that a pH of 7.3 was used. Another assay measured the inhibition of human kidney renin purified as described in Bangham, D. R., Robertson, I., Robinson, J. I. S., Robinson, C. J., and Tree, M., Clinical Science and Molecular Medicine, 48 (Supp. 2): 136s-159s (1975), and further purified by affinity chromatography on pepstatin-aminohexyl-Sepharase as described in Poe, M., Wu., J. K., Florance, J. R., Radkey, J. A., Bennett, C. D., and Hoogsteen, K., J. Biol. Chem. 258: 2209-2216 (1983). The assay was also in accordance with Poe et al. cited above. Further assays measured human plasma renin and dog plasma renin in accordance with procedures described in Boger et al., Nature, 303: 81-84 (1983).
Results expressed as KI values refer to the dissociation constant of the inhibited enzyme inhibitor complex. This KI value was obatined as described above. Pepstatin was used as an active control.

dog plasma renin = target: T2, dog plasma renin (Canis lupus familiaris, UniProt Q6DYE7); test: Dog plasma renin assay; assay type: biochemical; conditions: for IC50: read-out: Renin Inhibition Dog Plasma I50
T2 construct: Further assays measured human plasma renin and dog plasma renin; from tissue; host or cells: dog plasma
T2 sequence (Q6DYE7 66-403): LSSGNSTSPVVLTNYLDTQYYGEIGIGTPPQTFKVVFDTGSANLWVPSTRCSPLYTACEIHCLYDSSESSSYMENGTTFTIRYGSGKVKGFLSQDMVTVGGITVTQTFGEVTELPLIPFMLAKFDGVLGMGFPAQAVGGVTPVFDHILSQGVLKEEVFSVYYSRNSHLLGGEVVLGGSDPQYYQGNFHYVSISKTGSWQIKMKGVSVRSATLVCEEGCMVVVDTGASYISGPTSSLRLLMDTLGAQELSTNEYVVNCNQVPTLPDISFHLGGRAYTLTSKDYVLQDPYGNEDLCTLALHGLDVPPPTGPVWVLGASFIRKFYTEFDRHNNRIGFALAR
Experimental: as §1

human plasma renin = target: T3, human plasma renin (Homo sapiens, UniProt P00797); test: Human plasma renin assay; assay type: biochemical; conditions: read-out: Renin Inhibition Human Plasma I50
T3 construct: Further assays measured human plasma renin and dog plasma renin; from tissue; host or cells: human plasma
T3 sequence (P00797 67-406): T1 sequence (P00797 67-406)
Experimental: as §1

nephrectomized rats = conditions: after the injection of hog renin into nephrectomized rats; Gross et al.; cited from earlier work
acid proteases = conditions: cited from earlier work
hog kidney renin = test: Inhibition of hog kidney renin; assay type: biochemical; conditions: pH 7.3; read-out: Renin Inhibition Hog Kidney I50
Experimental: as §1

For `CC(C)C[C@H](NC(=O)[C@H](CC(C)C)[C@H](O)[C@H](CC(C)C)NC(=O)[C@H](Cc1c[nH]cn1)NC(=O)[C@H](Cc1ccccc1)NC(=O)OC(C)(C)C)C(=O)NCc1ccccc1` [BOCPheHis(2- -i-Bu)StaLeu], the Ki (human kidney renin) was 10 nM and the “Renin Inhibition Dog Plasma % I” value (dog plasma renin; I 10^-6) was 0%.
With `CC(C)C[C@H](NC(=O)[C@H](CC(C)C)[C@H](O)[C@H](Cc1ccccc1)NC(=O)[C@H](Cc1c[nH]cn1)NC(=O)[C@H](Cc1ccccc1)NC(=O)OC(C)(C)C)C(=O)NCc1ccccc1` [BOCPheHis(2- -i-Bu)AHPPALeu, tert-Butyloxycarbonyl-L-phenylalanyl-L-histidyl-4(S)-amino-3(S)-hydroxy-2(R)-iso-butyl-5-phenylpentanoyl-L-leucyl-benzylamide] the Ki (human kidney renin) was 9.3 nM, the IC50 (human plasma renin) was 8.2 nM and the IC50 (dog plasma renin) was 3.5 nM.
Work on `CC(C)CC[C@@H](C(=O)N[C@@H](CC(C)C)C(=O)NCc1ccccc1)[C@H](O)[C@H](Cc1ccccc1)NC(=O)[C@H](Cc1c[nH]cn1)NC(=O)[C@H](Cc1ccccc1)NC(=O)OC(C)(C)C` [BOCPheHis(2- -i-Pent)AHPPALeu] yielded a Ki (human kidney renin) of 4.4 nM, an IC50 (human plasma renin) of 65 nM and an IC50 (dog plasma renin) of 6.2 nM.
For Pepstatin, the “blood pressure in vivo” value (nephrectomized rats) is listed as “reduce blood pressure” and the “inhibition of other acid proteases (selectivity)” value (acid proteases) is listed as “inhibition of a variety of other acid proteases in addition to renin”.
In the case of `CC(C)CC(C(=O)N[C@@H](CC(C)C)C(=O)N[C@@H](Cc1ccccc1)C(N)=O)[C@H](O)[C@H](CC(C)C)NC(=O)[C@H](Cc1ccccc1)NC(=O)[C@H](Cc1ccccc1)NC(=O)[C@@H]1CCCN1C(=O)[C@H](Cc1c[nH]cn1)NC(=O)C(C)C` (some centres unmarked) [IBUHisProPhePhe(2- -i-Bu)StaLeuPheNH2] (Isobutyryl-HPFF[X1]LF-NH2), the IC50 (hog kidney renin) is reported as 22 nM.
